As usually defined, the IC50 is the concentration that inhibits the measured activity by half.

The source of these data is publication PMC6176987, “Correction of cognitive deficits in mouse models of Down syndrome by a pharmacological inhibitor of DYRK1A” (Disease Models & Mechanisms, 2018).

One assay addresses CDK5/p25 (Homo sapiens, UniProt Q00535). Description: Recombinant protein kinase assay, CDK5/p25. The class given is biochemical. Particulars: 15 µM ATP.
For another assay, the target named is T1, CK2 (Homo sapiens, UniProt P68400).
T1 construct: Cochet
As to the kind of experiment: Recombinant protein kinase assay, CK2. Format: biochemical. Particulars: 15 µM ATP.

The next assay concerns the target CDK2/cyclin A (Homo sapiens, UniProt P24941). Description: Recombinant protein kinase assay, CDK2/cyclin A. Format: biochemical. The note with it: 15 µM ATP.
In a further assay the target is DYRK3 (Homo sapiens, UniProt O43781). As to the kind of experiment: Recombinant protein kinase assay, DYRK3. The class given is biochemical. The note with it: 15 µM ATP.
In another assay the target is T2, CDK9/cyclin T (Homo sapiens, UniProt P50750).
T2 construct: made in house; host or cells: insect cells
Description: Recombinant protein kinase assay, CDK9/cyclin T. The class given is biochemical. The note with it: 15 µM ATP.

The target in the next assay is CLK2 (Mus musculus, UniProt O35491). Description: Recombinant protein kinase assay, CLK2. Format: biochemical. Particulars: 15 µM ATP; read-out: IC50 CLK2.
Another assay concerns Tg(Dyrk1a) mice. Description: Novel object recognition (NOR) test in Tg(Dyrk1a) mice. The note with it: daily i.p. treatment for 19 days. The class given is in vivo, mouse.
Another assay concerns the target CLK3 (Mus musculus, UniProt O35492). As to the kind of experiment: Recombinant protein kinase assay, CLK3. Particulars: 15 µM ATP; read-out: IC50 CLK3. The class given is biochemical.
Assay [1] addresses T3, DYRK1A (Mus musculus, UniProt Q61214).
T3 construct: DYRK1A was purified from brain extracts by immunoprecipitation; from tissue; host or cells: mouse brain (wt, Tg(Dyrk1a), Ts65Dn)
As to the kind of experiment: Brain DYRK1A catalytic activity after treatment, Tg(Dyrk1a) mice. The class given is in vivo. Particulars: 19 days of treatment. The procedure:
Protein kinase assays to measure the catalytic activity of DYRK1A in the brains of the animals treated with or without drugs were performed as follows: frozen half brains were homogenized in lysis buffer (1.2 ml/half brain) using Precellys® homogenizer tubes. After centrifugation at 2800 g for 2×15 s, 1 mg brain extract was incubated with 2 µg DYRK1A (H00001859 M01, Interchim) or GSK3-β (MBS8508391, Emelca Bioscience, France) antibodies at 4°C for 1 h under gentle rotation. Then, 20 µl protein G agarose beads (Thermo Fisher Scientific, France), previously washed three times with bead buffer (50 mM Tris pH 7.4, 5 mM NaF, 250 mM NaCl, 5 mM EDTA, 5 mM EGTA, 0.1% Nonidet P-40 and protease inhibitor cocktail from Roche, France), were added to the mix and gently rotated at 4°C for 30 min. After a 1 min spin at 10,000 g and removal of the supernatant, the pelleted immune complexes were washed three times with bead buffer, and a last time with Buffer C (60 mM β-glycerophosphate, 30 mM p-nitrophenolphosphate, 25 mM Mops pH 7.2, 5 mM EGTA, 15 mM MgCl2, 2 mM dithiothreitol, 0.1 mM sodium orthovanadate, 1 mM phenylphosphate, protease inhibitor cocktail). DYRK1A or GSK-3 immobilized on beads were assayed in buffer C as described in the Supplementary Materials and Methods with Woodtide ([…]) (1.5 µg/assay) or GSK3-tide ([…]pSED-EEE, where pS stands for phosphorylated serine) as substrates.

In assay [2] the target is DYRK1A (Homo sapiens, UniProt Q13627). Description: Recombinant protein kinase assay, DYRK1A. The note with it: 15 µM ATP. Format: biochemical.
The target in another assay is CLK1 (Mus musculus, UniProt P22518). As to the kind of experiment: Recombinant protein kinase assay, CLK1. Format: biochemical. The note with it: 15 µM ATP; read-out: IC50 CLK1.
In a further assay the target is CLK4 (Mus musculus, UniProt O35493). Description: Recombinant protein kinase assay, CLK4. Format: biochemical. Particulars: 15 µM ATP.
The target in a further assay is DYRK1B (Homo sapiens, UniProt Q9Y463). Description: Recombinant protein kinase assay, DYRK1B. The note with it: 15 µM ATP. Format: biochemical.
The next assay deals with DYRK2 (Homo sapiens, UniProt Q92630). Description: Recombinant protein kinase assay, DYRK2. Format: biochemical. Particulars: 15 µM ATP.
A further assay addresses PIM1 (Homo sapiens, UniProt P11309). Description: Recombinant protein kinase assay, PIM1. The class given is biochemical. Particulars: 15 µM ATP.
Another assay concerns the target laminin receptor. Further details: method as in Khan et al., 2006; Yang et al., 2009. The note with it: ref Khan et al., 2006; Yang et al., 2009; cited from earlier work.
Another assay concerns vimentin. Further details: method as in Khan et al., 2006; Yang et al., 2009. Particulars: ref Khan et al., 2006; Yang et al., 2009; cited from earlier work.
The subject of assay [3] is DYRK1A. Further details: method as in Khan et al., 2006; Yang et al., 2009. Particulars: ref Khan et al., 2006; Yang et al., 2009; cited from earlier work.

Chain of CDK5/p25 (Q00535 whole entry): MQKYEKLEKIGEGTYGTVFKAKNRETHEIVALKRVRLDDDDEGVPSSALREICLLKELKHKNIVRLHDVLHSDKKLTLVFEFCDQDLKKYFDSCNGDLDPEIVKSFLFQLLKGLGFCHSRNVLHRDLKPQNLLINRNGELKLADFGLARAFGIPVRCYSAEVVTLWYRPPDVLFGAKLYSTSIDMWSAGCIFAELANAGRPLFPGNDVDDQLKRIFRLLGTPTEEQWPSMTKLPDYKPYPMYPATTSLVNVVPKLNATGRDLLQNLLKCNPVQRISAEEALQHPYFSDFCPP
Chain of CDK5/p25 (Q15078 99-307 partner limits assumed): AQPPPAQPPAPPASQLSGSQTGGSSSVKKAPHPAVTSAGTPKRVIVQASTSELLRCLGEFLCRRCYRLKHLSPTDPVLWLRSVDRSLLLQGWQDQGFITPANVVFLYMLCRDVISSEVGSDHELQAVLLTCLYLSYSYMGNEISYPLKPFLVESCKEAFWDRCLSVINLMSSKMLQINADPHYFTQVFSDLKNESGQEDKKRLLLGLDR
Chain of DYRK3 (O43781 whole entry): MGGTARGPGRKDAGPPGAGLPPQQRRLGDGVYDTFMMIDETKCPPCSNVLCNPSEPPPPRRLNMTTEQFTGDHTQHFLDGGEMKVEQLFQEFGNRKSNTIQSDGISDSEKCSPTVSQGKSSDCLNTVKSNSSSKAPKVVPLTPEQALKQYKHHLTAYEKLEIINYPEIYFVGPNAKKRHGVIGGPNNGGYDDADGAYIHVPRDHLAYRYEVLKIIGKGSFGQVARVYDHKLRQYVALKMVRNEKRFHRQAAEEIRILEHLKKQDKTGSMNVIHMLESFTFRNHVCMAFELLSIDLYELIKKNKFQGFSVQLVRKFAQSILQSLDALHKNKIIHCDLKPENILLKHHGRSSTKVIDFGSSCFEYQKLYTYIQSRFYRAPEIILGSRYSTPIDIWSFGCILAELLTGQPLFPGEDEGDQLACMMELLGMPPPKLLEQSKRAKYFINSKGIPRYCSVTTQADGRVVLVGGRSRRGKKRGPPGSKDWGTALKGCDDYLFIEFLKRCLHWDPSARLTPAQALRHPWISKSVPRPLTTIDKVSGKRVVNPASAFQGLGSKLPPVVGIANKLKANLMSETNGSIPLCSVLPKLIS
Chain of CLK2 (O35491 whole entry): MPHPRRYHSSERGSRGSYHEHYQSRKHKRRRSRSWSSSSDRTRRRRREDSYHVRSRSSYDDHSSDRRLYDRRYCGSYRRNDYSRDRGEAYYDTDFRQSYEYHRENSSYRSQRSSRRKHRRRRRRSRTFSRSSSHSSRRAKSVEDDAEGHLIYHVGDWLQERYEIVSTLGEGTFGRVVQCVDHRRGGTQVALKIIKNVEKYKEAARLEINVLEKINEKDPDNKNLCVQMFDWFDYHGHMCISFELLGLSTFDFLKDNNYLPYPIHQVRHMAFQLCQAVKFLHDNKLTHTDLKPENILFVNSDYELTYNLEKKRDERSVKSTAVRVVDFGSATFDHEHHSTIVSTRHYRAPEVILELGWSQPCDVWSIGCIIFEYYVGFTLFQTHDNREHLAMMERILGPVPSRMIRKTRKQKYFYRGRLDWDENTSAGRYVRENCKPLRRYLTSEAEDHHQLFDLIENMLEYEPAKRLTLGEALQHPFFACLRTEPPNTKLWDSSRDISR
T1 sequence (P68400 whole entry): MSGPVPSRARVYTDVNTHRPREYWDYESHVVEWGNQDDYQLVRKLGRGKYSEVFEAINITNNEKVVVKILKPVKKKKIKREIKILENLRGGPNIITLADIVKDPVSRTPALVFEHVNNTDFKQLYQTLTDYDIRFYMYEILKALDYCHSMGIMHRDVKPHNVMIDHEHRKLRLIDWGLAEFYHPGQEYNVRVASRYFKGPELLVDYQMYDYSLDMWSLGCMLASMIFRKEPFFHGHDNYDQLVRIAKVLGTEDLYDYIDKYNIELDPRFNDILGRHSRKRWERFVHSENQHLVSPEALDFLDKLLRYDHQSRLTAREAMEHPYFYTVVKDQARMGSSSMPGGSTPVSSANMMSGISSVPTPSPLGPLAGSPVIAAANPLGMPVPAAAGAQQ
T2 sequence (P50750 whole entry): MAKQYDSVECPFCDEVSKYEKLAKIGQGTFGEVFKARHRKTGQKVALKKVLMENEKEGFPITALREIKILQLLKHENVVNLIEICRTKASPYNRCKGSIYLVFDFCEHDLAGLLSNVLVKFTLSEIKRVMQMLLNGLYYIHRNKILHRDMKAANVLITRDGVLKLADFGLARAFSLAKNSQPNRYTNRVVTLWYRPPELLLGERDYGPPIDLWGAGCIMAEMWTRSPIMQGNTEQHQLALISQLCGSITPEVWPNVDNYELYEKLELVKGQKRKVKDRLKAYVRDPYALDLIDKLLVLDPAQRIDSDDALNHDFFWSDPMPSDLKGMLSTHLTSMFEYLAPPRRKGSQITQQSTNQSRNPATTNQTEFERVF
T2 sequence (O60563 whole entry partner): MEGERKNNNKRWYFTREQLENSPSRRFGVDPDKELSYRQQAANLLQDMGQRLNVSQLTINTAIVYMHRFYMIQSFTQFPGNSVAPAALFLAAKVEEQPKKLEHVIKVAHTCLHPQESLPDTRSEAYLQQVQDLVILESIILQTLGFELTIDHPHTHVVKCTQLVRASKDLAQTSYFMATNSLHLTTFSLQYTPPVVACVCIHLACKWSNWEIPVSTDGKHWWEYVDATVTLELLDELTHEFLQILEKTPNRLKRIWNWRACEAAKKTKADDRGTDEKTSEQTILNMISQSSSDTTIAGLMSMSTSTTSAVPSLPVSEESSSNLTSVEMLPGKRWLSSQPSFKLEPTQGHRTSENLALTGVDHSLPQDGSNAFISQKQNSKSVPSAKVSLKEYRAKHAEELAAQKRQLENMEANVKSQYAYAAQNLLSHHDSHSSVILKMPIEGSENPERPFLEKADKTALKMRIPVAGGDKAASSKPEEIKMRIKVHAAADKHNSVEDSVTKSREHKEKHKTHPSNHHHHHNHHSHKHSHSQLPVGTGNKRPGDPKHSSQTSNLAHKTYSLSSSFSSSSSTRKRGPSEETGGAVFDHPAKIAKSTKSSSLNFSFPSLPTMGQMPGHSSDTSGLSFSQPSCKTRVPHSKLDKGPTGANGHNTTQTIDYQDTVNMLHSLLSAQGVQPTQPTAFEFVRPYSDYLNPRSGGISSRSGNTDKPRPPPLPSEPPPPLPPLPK
Chain of CLK3 (O35492 whole entry): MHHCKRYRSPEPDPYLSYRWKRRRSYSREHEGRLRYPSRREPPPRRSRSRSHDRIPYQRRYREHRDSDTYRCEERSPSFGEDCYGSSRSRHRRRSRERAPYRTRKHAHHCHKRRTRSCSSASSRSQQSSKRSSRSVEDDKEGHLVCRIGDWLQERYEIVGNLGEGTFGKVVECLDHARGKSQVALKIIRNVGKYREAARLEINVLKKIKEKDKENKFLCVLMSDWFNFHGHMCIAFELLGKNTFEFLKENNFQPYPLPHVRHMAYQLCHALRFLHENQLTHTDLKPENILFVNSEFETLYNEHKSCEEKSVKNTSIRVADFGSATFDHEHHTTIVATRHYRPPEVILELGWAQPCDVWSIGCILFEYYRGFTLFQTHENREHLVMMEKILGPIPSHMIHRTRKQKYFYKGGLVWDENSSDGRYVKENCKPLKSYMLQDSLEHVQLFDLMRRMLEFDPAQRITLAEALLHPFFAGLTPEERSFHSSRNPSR
Chain of DYRK1B (Q9Y463 whole entry): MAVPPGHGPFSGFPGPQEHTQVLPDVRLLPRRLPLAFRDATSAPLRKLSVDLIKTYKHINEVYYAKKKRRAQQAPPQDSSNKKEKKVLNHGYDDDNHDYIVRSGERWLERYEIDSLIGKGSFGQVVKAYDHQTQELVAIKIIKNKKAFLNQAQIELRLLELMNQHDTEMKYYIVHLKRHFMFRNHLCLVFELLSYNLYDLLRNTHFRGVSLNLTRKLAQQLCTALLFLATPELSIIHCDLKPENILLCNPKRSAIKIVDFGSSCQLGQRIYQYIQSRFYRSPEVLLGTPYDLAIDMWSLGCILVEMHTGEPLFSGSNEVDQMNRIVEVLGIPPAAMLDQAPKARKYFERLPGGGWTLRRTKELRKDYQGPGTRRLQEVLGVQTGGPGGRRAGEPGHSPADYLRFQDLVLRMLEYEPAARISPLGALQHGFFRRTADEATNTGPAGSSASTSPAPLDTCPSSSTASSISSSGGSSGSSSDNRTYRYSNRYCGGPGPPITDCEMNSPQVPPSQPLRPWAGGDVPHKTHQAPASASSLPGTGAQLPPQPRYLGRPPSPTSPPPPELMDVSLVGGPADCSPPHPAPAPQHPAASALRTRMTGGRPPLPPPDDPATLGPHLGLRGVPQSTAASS
Chain of CLK1 (P22518 whole entry): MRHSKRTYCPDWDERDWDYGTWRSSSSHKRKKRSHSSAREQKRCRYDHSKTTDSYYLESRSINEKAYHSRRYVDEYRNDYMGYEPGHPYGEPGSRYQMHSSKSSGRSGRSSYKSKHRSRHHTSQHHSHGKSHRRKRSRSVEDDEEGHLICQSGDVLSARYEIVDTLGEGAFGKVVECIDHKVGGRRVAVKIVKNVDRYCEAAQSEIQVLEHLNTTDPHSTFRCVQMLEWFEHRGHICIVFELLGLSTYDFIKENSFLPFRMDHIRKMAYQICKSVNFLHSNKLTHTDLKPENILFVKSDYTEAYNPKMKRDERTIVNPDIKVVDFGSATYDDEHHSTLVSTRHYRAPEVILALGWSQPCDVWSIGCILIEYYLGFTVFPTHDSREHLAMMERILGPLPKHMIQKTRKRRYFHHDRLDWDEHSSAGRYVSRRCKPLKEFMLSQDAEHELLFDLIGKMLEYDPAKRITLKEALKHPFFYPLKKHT

On to `O=C1NC(Nc2ccccc2)=N/C1=C\c1ccc2c(c1)OCCCO2` [L43], for which the IC50 on CDK5/p25, on CK2, on CDK2/cyclin A, at DYRK3, on CDK9/cyclin T and at CLK2 was above 10 µM in each case. In addition, the IC50 at CLK3 was above 10 µM; on DYRK1A [2] it was 7.4 µM. In addition, the “Behavioural effect in NOR test” value in the assay on Tg(Dyrk1a) mice is “lack of effects”. For the same compound, the “Tg(Dyrk1a) brain DYRK1A activity” value on DYRK1A [1] is listed as “did not reduce”.

On to `COc1cc(/C=C2\N=C(Nc3ccc(N4CCN(C)CC4)cc3)NC2=O)ccc1O` [L99], for which the IC50 on CDK5/p25 is above 10 µM; at CK2 it was above 10 µM; on CDK2/cyclin A it was above 10 µM; on CLK1, 0.012 µM; at DYRK3 it was 0.01 µM; on CLK4 it was 0.012 µM. Also, the IC50 is 0.32 µM at CDK9/cyclin T; 0.03 µM at CLK2; 0.7 µM at CLK3; 0.02 µM at DYRK1B; 0.015 µM at DYRK2; 0.014 µM at DYRK1A [2]. Moreover, at PIM1, the IC50 turned out to be 0.21 µM. Further, the “Behavioural effect in NOR test” value in the assay on Tg(Dyrk1a) mice was “beneficial behavioural effects”.

For `O=C(O[C@@H]1Cc2c(O)cc(O)cc2O[C@@H]1c1cc(O)c(O)c(O)c1)c1cc(O)c(O)c(O)c1` [EGCG, epigallocatechin gallate], the IC50 is 0.04 µM on laminin receptor, 0.003 µM with vimentin and 0.33 µM with DYRK1A [3].
